For assay [1], the system named is tumour-bearing mice (Murine C-26 adenocarcinoma cells). Briefly: Plasma calcium levels in C-26 tumour-bearing mice, single or combined ingredients (experiment A). It is filed as in vivo. Particulars: diet added to AIN93-M high protein, day 20, compared to TB on control diet (FIG. 1B).
The test system is the same in assay [2]. Briefly: Bone mineral density in C-26 tumour-bearing mice on experimental diets (experiment A). Particulars: diet added to AIN93-M high protein, day 20, compared to TB on control diet (FIG. 1A). The class given is in vivo.

Each structure is given as a SMILES string.

`CC(C)C[C@H](N)C(=O)O` [leucine]: the plasma calcium levels entry in assay [1] is on record as “no effect”. Moreover, the bone mineral density result in assay [2] is “did not result in significant changes compared to TB”.

(Values after patent US9867796B2, “Combination of a leucine source and an omega-3 unsaturated fatty acid source for use in the treatment of hypercalcaemia” (N.V. Nutricia, priority 2009, dated 2018).)
